Data as given in patent US10925872B2, “Methods of treating cochlear synaptopathy” (PIPELINE THERAPEUTICS, INC., priority 2016, dated 2021).

Tests used:
DCC α-fragment [1] = assay: DCC α-fragment Western blot, mouse ex vivo embryonic spinal cord; assay type: cell-based, CD-1 mice; details: embryonic day 15 spinal cord segments, 1 μM, 24 h, normalized to actin
Source text: (§1) Previous reports have shown that DCC (deleted in colorectal cancer) is a γ-secretase substrate. DCC is the receptor for the guidance molecule, netrin, and its activation results in neuronal axon outgrowth, axon turning and synapse formation. Embryonic spinal cords of presenilin knockout mice treated display persistent expression of the DCC α-fragment; these fragments can enhance netrin-DCC mediated events, including axon outgrowth in cultured motor neurons (Taniguchi et al., 2003, J. Biol. Chem., 278:30425-30428, and Bai et al., 2011, Cell, 144(1): 106-18). The following studies were performed using GSM, “RO”, as well as the GSI, Compound I. RO has the structure:
Spinal cords from embryonic day 15 CD-1 mice were collected and cut into 1-2 mm segments and transferred to serum-free growth media (DMEM-F12, N2 and B27 serum supplements, penicillin/streptomycin) with 1 μM RO or 1 μM Compound I. Segments were cultured for 24 h (37° C., 5% CO2) then processed for Western blot. Membranes were probed with a DCC antibody recognizing the intracellular domain and bands were normalized to actin.

DCC α-fragment [2] = assay: DCC α-fragment Western blot, mouse ex vivo cochlea (spiral ganglion); assay type: cell-based, CD-1 mice; details: postnatal day 21 cochlea, 1 μM, 24 h, normalized to actin
Source text: as §1
Cochleae were obtained from postnatal day 21 CD-1 mice. An opening was made in the bone at the cochlear apex to allow for fluid flow. Cochlea were incubated in serum-free growth media (DMEM-F12, N2 and B27 serum supplements, penicillin/streptomycin) with 1 μM RO or 1 μM Compound I. After 24 h, spiral ganglion were isolated and processed for Western blot. Membranes were probed with a DCC antibody recognizing the intracellular domain and bands were normalized to actin.

[3] = system: Type I spiral ganglion neurons; assay: Type I spiral ganglion neuron neurite outgrowth with GSMs; assay type: cell-based, CD-1 mice; details: for EC50: 24 h treatment, Type I SGNs; for neurite outgrowth (length of Type I SGN neurites): varying concentrations, 24 h
Protocol: Spiral ganglion neurons (SGNs) were cultured from postnatal day 5 CD-1 mice using methods adapted from Whitlon D S, et al., Scientific Reports, 2015, 5, 15960, doi:10.1038/srep15960. Neurons were dissociated and plated onto collagen-coated 96-well plates in growth media (DMEM/F12, N2 and B27 serum supplements and penicillin/streptomycin). After 18 h in culture, neurons were treated with varying concentrations of RO or NGP-555 for 24 h. Neurons were fixed and stained with a rabbit b-tubulin (somato-axonal marker) antibody followed by a donkey-anti-rabbit secondary antibody conjugated to Alexa 568 and counterstained with Hoechst blue fluorescent dye to stain the DNA. Neurons were imaged on an InCell 2000. Neurite length was measured using ImageJ. Only β-tubulin^+ cells displaying bipolar morphology (indicative of Type I SGNs) were quantified.
To determine whether the netrin-DCC pathway is involved in GSM-induced neurite outgrowth, a function-blocking netrin antibody was applied to the media 1 h prior to addition of 1 μM test compound. After 24 h, neurons are stained with β-tubulin and only neurites from Type I neurons are analyzed. Co-application of the netrin antibody with test compound results in a significant reduction in neurite outgrowth (FIG. 4D).

[4] = system: synapses on inner hair cells; assay: Mouse noise-induced cochlear synaptopathy, oral GSM; assay type: in vivo, CBA/J mice; details: 98 dB 8-16 kHz noise 2 h; oral gavage from three weeks later; fourteen days later; 32 kHz region
Protocol: Female CBA/J mice were exposed to 98 dB 8-16 kHz filtered noise for 2 hours. Three weeks later, vehicle (0.5% Methylcellulose, b.i.d.), NGP-555 (50 mg/kg, b.i.d.) or RO (10 mg/kg, q.d.) was given by oral gavage. Fourteen days later, mice were euthanized, cochlea removed, then tissue was fixed by perfusion with 4% paraformaldehyde. Cochlea were washed with calcium/magnesium free PBS then decalcified in 12.5 mM EDTA for 3 days. Cochlea were bisected with a midmodiolar cut through the oval window to apex. Individual turns were then separated and stained with antibodies against Myo6 and CtBP2. Synapses per inner hair cell were quantified on the turn containing the 32 kHz region. Consistent with literature, a decrease in synaptic density (but no decrease in inner or outer hair cell number) was observed after the 98 dB insult.

[5] = system: Type I spiral ganglion neurons; assay: Type I spiral ganglion neuron neurite outgrowth with GSIs; assay type: cell-based, CD-1 mice; details: 24-48 h, 0.1% DMSO
Protocol: Mouse spiral ganglion neurons (SGN) were harvested from CD-1 mice (postnatal day 3 to 5), dissociated and cultured on collagen I in serum free media. Cells were treated for 24-48 h with test compound in 0.1% DMSO then immunostained with the neurite marker, Tuj1 and imaged. Neurite length was quantified using ImageJ software (developed by NIH and available publicly). Only Tuj1^+ cells with clear bipolar morphology characteristic of Type I SGNs were quantified. The test compounds were Compound I, Compound II, and RO4929097, as well as the Notch sparing GSI, BMS-708163; NT-3 was included as positive control. […] Moreover, BMS-708163, a Notch-sparing GSI, and Compound I, a Notch inhibiting GSI, both increased type I SGN neurite outgrowth (FIG. 6C).

inner hair cell synapses [6] = assay: Guinea pig kanamycin-induced cochlear synaptopathy model; assay type: in vivo, Hartley guinea pigs; details: kanamycin 400 mg/kg i.p. 10 days; 30 μl of 2% in vehicle bilateral transtympanic on day 15; three months after
Protocol: Beginning on day 0, male Hartley guinea pigs (450-500 g) were deafened by intraperitoneal administration of kanamycin (400 mg/kg) dosed once daily for 10 consecutive days. […] A loss of synapse density in this model has not been described previously. On day 15, animals received bilateral transtympanic injections of vehicle (30 μl), crystalline Compound I (30 μl of 2% in vehicle), or crystalline Compound II (30 μl of 2% in vehicle). Three months after administration of test article, animals were euthanized and cochleae collected and stained with phalloidin and antibodies against CtBP2 and NF-200. The number of CtBP2+/NF-200+ synapses were quantified and normalized to the number of inner hair cells to obtain synapse density. Synapse density was decreased with kanamycin treatment at 14.7 and 17.3 mm from the apex of the cochlea, which in the guinea pig cochlea, tonally correlates with 16 and 32 kHz, respectively, according to the Greenwood frequency map.
Vehicle (PF10) and GSI in vehicle used in Examples 6 and 7 were prepared as follows: To 129 mL sterile water was added, 0.96 g sodium chloride, 0.59 g sodium phosphate dibasic, and 0.14 g sodium phosphate monobasic. The solution was stirred at ambient temperature and 25.6 g poloxamer 407 was added and stirred overnight to yield a clear solution. […]

inner hair cell synapses [7] = details: noise-exposed mice, delivery to the round window niche; cited from earlier work

Cc1nsc(N2C[C@H]3CC[C@@H](C2)[C@@H]3Nc2nc3c(-c4ccc(F)c(F)c4F)cccn3n2)n1 [RO]
DCC α-fragment level compared to the vehicle group (DCC α-fragment [1]): Increase in α-fragment
DCC α-fragment level compared to the vehicle group (DCC α-fragment [2]): Increase in α-fragment
EC50 ([3]; Mus musculus, Neuron): 24 nM
neurite outgrowth (length of Type I SGN neurites) [3]: dose dependent increase
number of synapses on inner hair cells (synaptic density) [4]: increase in synaptic density

Cc1cn(-c2ccc3n(c2=O)CCN([C@@H](C)[C@@H]2CC[C@H](c4cc(F)c(Cl)cc4C(F)(F)F)O2)C3=O)cn1 [PF-06648671]
EC50 [3]: 0.303 nM
neurite outgrowth (length of Type I SGN neurites) [3]: dose-dependence increases

NC(=O)[C@@H](CCC(F)(F)F)N(Cc1ccc(-c2ncon2)cc1F)S(=O)(=O)c1ccc(Cl)cc1 [BMS-708163, reference compound]
lengths of Type I SGN neurites [5]: increased

CCc1cc(Nc2nc(-c3ccc(-n4cnc(C)c4)c(F)c3)cs2)c(C)cc1C [NGP555]
EC50 ([3]; Mus musculus, Neuron): 0.527 nM
neurite outgrowth (length of Type I SGN neurites) [3]: dose dependent increase
number of synapses on inner hair cells (synaptic density) [4]: significantly increased

CC(C)(C(=O)NCC(F)(F)C(F)(F)F)C(=O)N[C@@H]1C(=O)Nc2ccccc2-c2ccccc21 [RO4929097, reference compound]
lengths of Type I SGN neurites [5]: significant increase

CN1C(=O)[C@@H](NC(=O)[C@](C)(F)C(=O)NCC(F)(F)C(F)(F)F)c2ccccc2-c2ccccc21 [Compound II, (2R)-2-fluoro-2-methyl-N—[(S)-5-methyl-6-oxo-6,7-dihydro-5H-dibenzo[b,d]azepin-7-yl]-N′-(2,2,3,3,3-pentafluoropropyl)malonamide]
lengths of Type I SGN neurites [5]: significant increase
synapse density (CtBP2+/NF-200+ synapses per inner hair cell) (inner hair cell synapses [6]): increased

COc1ccc2c(c1)N1CCC(C)(C)C1=CC(=O)C2NC(=O)[C@H](C)NC(=O)CCC(F)(F)F (stereo partly drawn) [Compound X, 4,4,4-trifluoro-N-((2S)-1-((9-methoxy-3,3-dimethyl-5-oxo-2,3,5,6-tetrahydro-1H-benzo[f]pyrrolo[1,2-a]azepin-6-yl)amino)-1-oxopropan-2-yl)butanamide]
lengths of Type I SGN neurites [5]: dose-dependent increase

B1: NT-3: growth factor that binds to TrkC receptors; positive control (protein, UniProt P20783 139-257, looked up)
Neurotrophin-3: YAEHKSHRGEYSVCDSESLWVTDKSSAIDIRGHQVTVLGEIKTGNSPVKQYFYETRCKEARPVKNGCRGIDDKHWNSQCKTSQTYVRALTSENNKLVGWRWIRIDTSCVCALSRKIGRT
ABR wave 1 amplitude (inner hair cell synapses [7]): improvement
inner hair cell synapses (inner hair cell synapses [7]): recovered inner hair cell synapses
